Earlier results, collected in patent US6812249B2, “Process for preparing a 3-hydroxy-3-methylbutyrate amino acid salt and method of use” (priority 2003, dated 2004).

Settings: experienced weight trained athletes; oral supplementation for 6 weeks or 28 days

CC(C)(O)CC(=O)[O-].CC(C)(O)CC(=O)[O-].[Ca+2] [HMB calcium salt]
alteration in muscle size, fat mass, or strength variables: no alteration in muscle size, fat mass, or strength variables
